This is an account of results in patent US10799457B2, “Exosomal compositions and methods for the treatment of disease” (priority 2010, dated 2020).

One data set concerns C57BL/6j mice. The data set can be described thus: LPS mouse septic shock model. The class given is in vivo. The settings on record: 16 hours after IP injection of LPS, 4 mg/kg IP. Here is the method:
Mouse mortality was monitored over a period of 4 days. The sera were collected 16 hr after LPS injection and used to determine IL-6 and TNF-α levels using ELISAs as before. At day 1 after LPS challenge, 3 mice from each treated group were sacrificed and the leukocytes in the lungs were isolated using a method described previously (21). The percentage of CD11b^+Gr-1^+ cells in the lung was determined by FACS analysis.
Briefly, to monitor mice mortality, a LD50 (median lethal dose) of LPS was determined first. LPS (5 mg/ml, Sigma, St. Louis, Mo.) was then prepared with sterile H2O and varied amounts of LPS were IP injected into the same batch of commercially supplied C57BL/6j mice. Each group contained 6 mice. […] Exosomes and PBS injections served as controls.

The next data set deals with C57BL/6 mice. The data set is described as follows: Experimental autoimmune encephalitis (EAE), MOG 35-55 induced. In kind it is in vivo. The settings on record: intranasal daily from day 4, 1.5 nmoles; scale 0-5. The procedure:
EAE was induced in six-week-old female C57BL/6 mice using a procedure described previously (67). Briefly, mice were primed subcutaneously in the flanks with 150 μg of Myelin Oligodendrocyte Glycoprotein (MOG) 35-55 peptide (Biosynthesis, Lewisville, Tex.) per animal. The peptide was emulsified in complete Freund's adjuvant (CFA) containing 1 mg/ml of Mycobacterium tuberculosis H37RA (Difco, Detroit, Mich.). Two days later the mice were injected IP with 500 ng of Pertussis toxin (Alexis Corp., San Diego, Calif.) in 100 μl of PBS. Mice (n=10) were treated intranasally with daily doses of 1.5 nmoles of Exo-cur, or with Cur- or Exo-controls in PBS or PBS-control for 26 consecutive days. […] The mice were scored as follows: 0, no detectable signs of EAE; 1, complete limp tail; 2, limp tail and hindlimb weakness; 3, severe hindlimb weakness; 4, complete bilateral hindlimb paralysis; 5, total paralysis of both forelimbs and hindlimbs or death.
Relative quantification of select mRNA was performed using a CFX96 Realtime System and SsoFast™ Evagreen® supermixture (Bio-Rad Laboratories, Hercules, Calif.) according to the manufacturer's instructions. […] Fold changes in mRNA expression between treatments and controls were determined the ΔCT method (91). Fluorescence threshold cycle (Ct) values were calculated using SDS 700 System Software (Bio-Rad Laboratories, Hercules, Calif.). […]

Data set [1] is described as follows: In vitro stability assay in PBS (pH 7.4) at 37° C. In kind it is physicochemical. The settings on record: 150 min. The procedure: The fold reduction of the concentration at each time was determined by comparison to the beginning value. The experiments were repeated three times for each time point (n=3).
In a further data set the test system is Gr1^+ cells. The data set is described as follows: Gr1+ cell apoptosis, Annexin V FACS analysis. The class given is cell-based, Mouse. The note with it: 5 μM and 10 μM, 8 hours, Annexin V-FITC FACS. On the technique in general: Flow cytometry measures light scatter and fluorescence of single cells or particles in a stream.

Procedure for Gr1^+ cells: For cell surface marker staining, isolated cells were blocked at 4° C. for 5 min with 10 μg/ml mouse Fc block (BD Biosciences, San Jose, Calif.) and then reacted with various fluorochrome-labeled antibodies including appropriate isotype controls for 30 min at 4° C. After washing twice, cells were fixed and analyzed using a FACSCalibur flow cytometer (Becton Dickinson Biosciences, San Jose, Calif.). Data were analyzed using FlowJo software (Tree Star, Inc., Ashland, Oreg.). The following antibodies were used for immunostaining: FITC-Annexing V (Invitrogen, Carlsbad, Calif.), APC anti-mouse CD11b and PE anti-mouse Gr-1 (eBiosciences, San Diego, Calif.).
Mouse bone marrow cells were isolated as described previously (22). The isolated bone marrow cells were re-suspended to a concentration of 1×10^8 cells/ml using RPMI 1640 medium supplemented with 10% FBS. A Gr1-PE conjugated antibody (3 μg/ml), following a mouse FcR blocking specific antibody (5 μl/ml), was added, mixed thoroughly and incubated at 4° C. for 15 min. After centrifugation at 1500 rpm for 5 min, cells were re-suspended in fresh medium to a concentration of 1×10^8 cells/ml. EasySep® PE selection cocktail (25 μl/ml, StemCell Technologies, Vancouver, British Columbia) was added to the cells and incubated at 4° C. for 15 min. […]

`COc1cc(/C=C/C(=O)CC(=O)/C=C/c2ccc(O)c(OC)c2)ccc1O` [curcumin]: in the data set with C57BL/6j mice, the “sera level of IL-6” value was “similar” and the “sera level of TNF-α” value was “similar”. For the same compound, the “EAE disease severity score” value with C57BL/6 mice is 3.60±0.12. In addition, in data set [1], the “curcumin remaining after incubation compared to the 0 min sample” value is recorded as 25%. The “Gr1+ cell apoptosis” value in the data set on Gr1^+ cells was “induces Gr1^+ cell apoptosis”.
